According to article PMC9667784, “Synthesis, biological evaluation and computational studies of pyrazole derivatives as Mycobacterium tuberculosis CYP121A1 inhibitors” (RSC Medicinal Chemistry, 2022):

Biological target: BTFA-labelled CYP121_S171C (Mycobacterium tuberculosis, UniProt P9WPP7, S171C)
Format: binding

| Structure (SMILES) | 19F NMR perturbations of the FG-loop compared with cYY |
| --- | --- |
| COc1ccc(-c2nn(-c3ccc(Cl)cc3)cc2Cn2cncn2)cc1 [12b, 1-((1-(4-Chlorophenyl)-3-(4-methoxyphenyl)-1H-pyrazol-4-yl)methyl)-1H-1,2,4-triazole] | more intense than that of cYY |
| CCOc1ccc(-c2nn(-c3ccc(Cl)cc3)cc2Cn2cncn2)cc1 [12d, 1-((1-(4-Chlorophenyl)-3-(4-ethoxyphenyl)-1H-pyrazol-4-yl)methyl)-1H-1,2,4-triazole] | more intense than that of cYY |
